# Laboratory results reported in patent US6710048B2, “Pyrazine derivatives as modulators of tyrosine kinases” (Ortho-McNeil Pharmaceutical, Inc., priority 2000, dated 2004).
# pIC50: −log10 of the molar value.
# Target: HER2 (Homo sapiens, UniProt P04626)
# Assay: HER2 kinase selectivity assay
# Assay type: biochemical
# Details: Table 4 kinase selectivity; read-out: IC50, Assay 16 HER2
# Protocol: (§1) Assays to test compound inhibition of other kinases were preformed using methods that measure the amount of phosphorylation of a biotinylated peptide substrate. Biotinylated peptide substrates were selected from the literature as appropriate for the enzyme being evaluated. The general procedure used to assay for kinase activity is as follows: A kinase reaction mix was prepared in 50 mM Tris-HCl pH=8, 10 mM MgCl2, 0.1 mM NaVO4, 1 mM DTT, 5-10 μM ATP, 0.25-1 μM biotinylated peptide substrate, 0.2-0.8 μCuries per well ^33P-γ-ATP [2000-3000 Ci/mmol]. Assay conditions vary slightly for each protein kinase, for example, insulin receptor kinase requires 10 mM MnCl2 for activity and Calmodulin-dependent protein kinase requires calmodulin and 2 mM CaCl2. The reaction mixture was dispensed into the wells of a streptavidin coated Flashplate and 1 μl drug stock in 100% DMSO was added to a 100 μl reaction volume resulting in a final concentration of 1% DMSO in the reaction. Enzyme was diluted in 50 mM Tris-HCl pH=8.0, 0.1% BSA and added to each well. The reaction was incubated for one hour at 30° C. in the presence of compound. After one hour the reaction mix was aspirated from the plate and the plate was washed with PBS containing 100 mM EDTA. The plate was read on a scintillation counter to determine ^33P-γ-ATP incorporated into the immobilized peptide. Test compounds were assayed in duplicate at 8 concentrations [100 tM, 10 μM, 1 μM, 100 nM, 10 nM, 1 nM, 100 μM, 10 μM]. A maximum and minimum signal for the assay was determined on each plate. The IC50 was calculated from the dose response curve of the percent inhibition of the maximum signal in the assay according to the formula [max signal−background/test compound signal−background (100)=% inhibition] by graphing the percent inhibition against the log concentration of test compound. Known inhibitor compounds appropriate for the kinase being assayed were also included on each plate.
# Sequence of HER2 (P04626 23-1255, species assumed): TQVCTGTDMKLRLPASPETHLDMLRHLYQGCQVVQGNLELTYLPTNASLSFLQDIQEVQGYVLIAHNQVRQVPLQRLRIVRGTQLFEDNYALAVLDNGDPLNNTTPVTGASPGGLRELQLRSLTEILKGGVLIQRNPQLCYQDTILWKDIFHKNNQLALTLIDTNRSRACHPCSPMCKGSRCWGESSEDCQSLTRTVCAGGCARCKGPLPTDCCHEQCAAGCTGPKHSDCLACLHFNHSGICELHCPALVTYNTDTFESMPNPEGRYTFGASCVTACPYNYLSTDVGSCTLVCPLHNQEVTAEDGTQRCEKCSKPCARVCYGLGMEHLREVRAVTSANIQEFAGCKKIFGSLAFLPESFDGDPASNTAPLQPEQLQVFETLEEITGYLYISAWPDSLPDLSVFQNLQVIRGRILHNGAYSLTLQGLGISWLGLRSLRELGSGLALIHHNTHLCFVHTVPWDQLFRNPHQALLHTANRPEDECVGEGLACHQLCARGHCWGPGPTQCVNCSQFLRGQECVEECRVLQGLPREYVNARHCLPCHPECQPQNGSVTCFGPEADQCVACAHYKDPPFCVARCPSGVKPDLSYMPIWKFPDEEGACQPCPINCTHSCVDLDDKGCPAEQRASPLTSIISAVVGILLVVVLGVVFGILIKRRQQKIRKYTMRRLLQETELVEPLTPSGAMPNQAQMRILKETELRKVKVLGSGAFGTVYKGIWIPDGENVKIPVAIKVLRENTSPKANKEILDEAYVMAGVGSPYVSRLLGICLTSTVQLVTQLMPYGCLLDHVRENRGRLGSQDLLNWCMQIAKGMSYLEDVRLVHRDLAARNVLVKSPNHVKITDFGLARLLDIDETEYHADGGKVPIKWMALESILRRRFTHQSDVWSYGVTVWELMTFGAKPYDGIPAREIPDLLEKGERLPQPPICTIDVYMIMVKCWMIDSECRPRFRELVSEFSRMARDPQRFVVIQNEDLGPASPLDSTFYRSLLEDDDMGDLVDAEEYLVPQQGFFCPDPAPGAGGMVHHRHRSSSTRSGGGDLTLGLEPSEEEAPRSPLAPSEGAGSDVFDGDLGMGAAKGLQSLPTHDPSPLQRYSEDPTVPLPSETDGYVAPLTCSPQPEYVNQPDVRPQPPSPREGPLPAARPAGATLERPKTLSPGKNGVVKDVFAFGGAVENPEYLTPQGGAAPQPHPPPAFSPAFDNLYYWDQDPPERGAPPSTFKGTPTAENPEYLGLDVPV
row,pIC50,SMILES
1,< 4.00,Clc1cccc(Nc2cncc(-c3cncc(NCCCc4ccncc4)c3)n2)c1 [Cmd 71]
2,5.01,Clc1cccc(Nc2cncc(-c3cncc(NCCCc4cccnc4)c3)n2)c1 [Cmd 72]
3,5.14,Clc1cccc(Nc2cncc(-c3cncc(NCCCN4CCCCC4)c3)n2)c1 [Cmd 73]
4,5.52,Clc1cccc(Nc2cncc(-c3cncc(NCCCn4cccn4)c3)n2)c1 [Cmd 75]
5,5.65,Clc1cccc(Nc2cncc(-c3cncc(NCCCn4cncn4)c3)n2)c1 [Cmd 76]

# Target: T1, EGFR (epidermal growth factor receptor) (Homo sapiens, UniProt P00533)
# T1 construct: is purified from human A431 cell membranes; purchased Sigma E3641; host or cells: A431 cell membranes
# T1 sequence (P00533 25-1210): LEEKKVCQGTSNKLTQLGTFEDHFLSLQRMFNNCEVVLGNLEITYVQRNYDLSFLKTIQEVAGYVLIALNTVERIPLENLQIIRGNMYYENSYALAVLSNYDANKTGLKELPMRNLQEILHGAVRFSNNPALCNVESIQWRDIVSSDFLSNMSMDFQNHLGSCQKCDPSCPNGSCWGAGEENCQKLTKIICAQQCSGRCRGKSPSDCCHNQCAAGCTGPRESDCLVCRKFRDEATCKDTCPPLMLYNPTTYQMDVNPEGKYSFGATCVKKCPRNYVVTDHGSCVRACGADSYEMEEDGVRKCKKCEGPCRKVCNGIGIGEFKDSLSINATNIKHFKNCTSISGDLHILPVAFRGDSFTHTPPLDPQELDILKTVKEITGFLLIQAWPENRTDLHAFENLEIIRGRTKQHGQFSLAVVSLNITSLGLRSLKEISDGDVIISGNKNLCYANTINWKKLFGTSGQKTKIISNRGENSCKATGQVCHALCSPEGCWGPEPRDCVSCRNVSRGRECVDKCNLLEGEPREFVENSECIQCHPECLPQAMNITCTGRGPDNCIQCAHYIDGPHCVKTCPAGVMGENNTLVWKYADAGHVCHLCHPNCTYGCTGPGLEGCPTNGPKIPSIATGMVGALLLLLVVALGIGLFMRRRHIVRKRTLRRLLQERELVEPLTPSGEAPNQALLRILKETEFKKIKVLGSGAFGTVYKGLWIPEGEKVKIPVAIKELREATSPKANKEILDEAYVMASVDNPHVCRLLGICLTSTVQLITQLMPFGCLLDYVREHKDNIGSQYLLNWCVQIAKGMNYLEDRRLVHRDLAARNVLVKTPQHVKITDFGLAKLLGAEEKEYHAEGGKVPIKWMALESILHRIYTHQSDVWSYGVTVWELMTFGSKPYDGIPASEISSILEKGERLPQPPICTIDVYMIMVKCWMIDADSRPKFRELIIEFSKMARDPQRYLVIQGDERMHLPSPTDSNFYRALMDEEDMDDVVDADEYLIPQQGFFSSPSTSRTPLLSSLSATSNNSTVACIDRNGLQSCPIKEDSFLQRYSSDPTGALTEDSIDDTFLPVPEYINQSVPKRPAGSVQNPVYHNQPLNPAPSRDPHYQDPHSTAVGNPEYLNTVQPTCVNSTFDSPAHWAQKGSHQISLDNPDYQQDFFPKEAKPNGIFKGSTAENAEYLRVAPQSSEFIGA
# Assay: EGF-R kinase selectivity assay
# Assay type: biochemical
# Details: Table 4 kinase selectivity
# Protocol: as §1, with “The general procedure used to assay for kinase activity is as follows: A kinase reaction mix was prepared in 50 mM Tris-HCl pH=8, 10 mM MgCl2, 0.1 mM NaVO4, 1 mM DTT, 5-10 μM ATP, 0.25-1 μM biotinylated peptide substrate, 0.2-0.8 μCuries per well ^33P-γ-ATP [2000-3000 Ci/mmol].” left out, “After one hour the reaction mix was aspirated from the plate and the plate was washed with PBS containing 100 mM EDTA.” left out, “Test compounds were assayed in duplicate at 8 concentrations [100 tM, 10 μM, 1 μM, 100 nM, 10 nM, 1 nM, 100 μM, 10 μM].” left out, “Known inhibitor compounds appropriate for the kinase being assayed were also included on each plate.” left out
row,SMILES,pIC50
1,CN(C)CCCNc1cncc(-c2cncc(Nc3cccc(Cl)c3)n2)c1 [Cmd 35],4.68
2,O=C(NCCCO)c1cncc(-c2cncc(Nc3cccc(Cl)c3)n2)c1 [Cmd 39],5.22
